# Legend:
# Experiment in all cases: cells
# Set-up in all cases: Anti-proliferation, 10-point dose response, CellTiter-Glo luminescence (MTT stated for KM12(Luc)), GI50 fitted in Prism
# CAPAN-1 = settings: Homo sapiens, CAPAN-1, 72 h, read-out: GI50 (µM) a
# Description: (§1) To obtain the GI50 value of a substance, cell viability was measured using MTT (G4000, Promega, USA) for KM12(Luc) cell and Cell titer glo (G7572, Promega, USA) for other cell lines. For adherent cells, cells were seeded at 5,000 cells/well in a 96-well plate and treated with a substance one day after cell seeding. For suspension cells, 10,000 cells/well were seeded and the substance was treated after 4 h stabilization of cells. The substance was treated at 10 points of 1:3 serial dilution (0–100 µmol/L) for 72 h. For MTT assay, 15 µL dye solution was added to each well and incubated 4 h at 37°C. 100 µL of solubilization solution was added and followed 1 hr incubation. Absorbance at 570 nm of each well was recorded using EnVision microplate reader (Perkin Elmer). For Cell titer glo assay, Cell titer glo reagent was treated in each well and measured the luminescence by EnVision microplate reader (Perkin Elmer). Viable cells in each well were normalized by using 0.5% DMSO-treated wells (100%). The inhibitor dose−response curve was fitted and GI50 values were calculated using Prism 7.0 software (GraphPad). All assays were performed in duplicate and the standard deviation (SD) was determined from two independent experiments. KM12(Luc) was purchased from the JCRB cell bank. KM12 (Luc) was used within 6 months after purchase and the DNA profiles were confirmed using a short tandem repeat (STR) analysis by the Korean Cell Line Bank. KM12(Luc) cells were maintained in DMEM supplemented with 10% FBS and antibiotics. Parental Ba/F3 cells were purchased from DSMZ and were grown in RPMI1640 supplemented with 10% FBS and antibiotics in the presence of IL3, Transformed Ba/F3 cell lines were grown in the same media without IL3. Cells used in this study were negative for mycoplasma contamination. AN3-CA, HEC1A, U138, 8505C, MKN28, MKN45, A172, A375, Capan-1 HeLa, HEP3B, MCF-7 and MIA-paca-2 cells were maintained in DMEM (Welgene, Korea) supplemented with 10% FBS and antibiotics (Welgene, Korea). Otherwise, all cells were maintained in RPMI (Welgene, Korea) supplemented with 10% FBS and antibiotics (Welgene, Korea). To identify AZD4547 sensitive cell lines other than FGFR-mutant driven cancer cells, GI50 values were determined for AZD4547 against 64 different cancer cell lines, including AN3-CA used as a positive control ( Figure 1A and Table S1 ). […] Also, inhibitory activity of AZD4547 against DDR1 or FLT3 allows suppression of proliferation of U-2-OS and MV4-11 ([43]). Therefore, our attention focused on the inhibitory activity of AZD4547 against KM12(Luc) cell lines which have the TPM3-NTRK1 fusion gene. To exclude the possibility that the anti-proliferation activity of AZD4547 against KM12(Luc) is a common characteristic of FGFR inhibitors, we determined if BGJ398, a representative FGFR inhibitor, is also capable of suppressing proliferation of KM12(Luc) cells ( Figure 1B ).
# HCT15 = settings: Homo sapiens, HCT-15, 72 h, read-out: GI50 (µM) a
# Description: as §1
# HTH-7 = settings: KM12-Luc, 72 h, read-out: GI50 (µM) a
# Description: as §1
# KG-1 = settings: Homo sapiens, KG-1, 72 h, read-out: GI50 (µM) a
# Description: as §1
# MCF7 = settings: Homo sapiens, MCF7, 72 h, read-out: GI50 (µM) a
# Description: as §1
# MKN45 = settings: Homo sapiens, MKN-45, 72 h, read-out: GI50 (µM) a
# Description: as §1
# MOLT-4 = settings: Homo sapiens, MOLT-4, 72 h, read-out: GI50 (µM) a
# Description: as §1
# NCI-H23 = settings: Homo sapiens, NCI-H23, 72 h, read-out: GI50 (µM) a
# Description: as §1
# SK-MEL-30 = settings: Homo sapiens, SK-MEL-30, 72 h, read-out: GI50 (µM) a
# Description: as §1
# SNU484 = settings: SNU-484, 72 h, read-out: GI50 (µM) a
# Description: as §1
# U-2-OS = settings: Homo sapiens, U2OS, 72 h, read-out: GI50 (µM) a
# Description: as §1
# U-87-MG = settings: Homo sapiens, U-87 MG, 72 h, read-out: GI50 (µM) a
# Description: as §1
smiles,measurement,setting,value
COc1cc(CCc2cc(NC(=O)c3ccc(N4C[C@@H](C)N[C@@H](C)C4)cc3)n[nH]2)cc(OC)c1 [AZD4547],GI50,CAPAN-1,17.5 µM
same,GI50,HCT15,15.8 µM
same,GI50,HTH-7,6.44 µM
same,GI50,KG-1,6.27 µM
same,GI50,MCF7,7.84 µM
same,GI50,MKN45,12 µM
same,GI50,MOLT-4,6.59 µM
same,GI50,NCI-H23,10.8 µM
same,GI50,SK-MEL-30,16.5 µM
same,GI50,SNU484,24.6 µM
same,GI50,U-2-OS,0.43 µM
same,GI50,U-87-MG,8.94 µM

# Source: article PMC8591201, “Anti-Tumor Activity of AZD4547 Against NTRK1 Fusion Positive Cancer Cells Through Inhibition of NTRKs” (Frontiers in Oncology, 2021)
